Results: patent US11312763B2, “Anti-N3pGlu amyloid beta peptide antibodies and uses thereof” (Eli Lilly and Company, priority 2016, dated 2022)

System: deposited Aβ
Assay: Prior 4-month study of BACE inhibitor in feed in aged PDAPP mice
Format: in vivo

Structure (SMILES): C[C@@]1(c2cc(-c3cncnc3)c(F)cc2F)CCSC(N)=N1 [LY2811376]
- change in the deposited Aβ over the 4-month interval: no change in the deposited Aβ
